Assay results from patent US11066399B2, “Ferroportin inhibitors” (Vifor (International) AG, priority 2015, dated 2021).
Marks after values point to notes of the source that are not given here.

Assays:
[1] = biological target: T1, ferroportin (Fpn) (Mus musculus, UniProt Q9JHI9); assay: Hepcidin Internalization Assay (J774); assay type: cell-based; details: average (AVE) of multiple measurements; TMR-hepcidin 25 nM, J774 cells
T1 construct: host or cells: J774 mouse macrophage cell line, Fe(III)-NTA induced
T1 sequence (Q9JHI9 1-570): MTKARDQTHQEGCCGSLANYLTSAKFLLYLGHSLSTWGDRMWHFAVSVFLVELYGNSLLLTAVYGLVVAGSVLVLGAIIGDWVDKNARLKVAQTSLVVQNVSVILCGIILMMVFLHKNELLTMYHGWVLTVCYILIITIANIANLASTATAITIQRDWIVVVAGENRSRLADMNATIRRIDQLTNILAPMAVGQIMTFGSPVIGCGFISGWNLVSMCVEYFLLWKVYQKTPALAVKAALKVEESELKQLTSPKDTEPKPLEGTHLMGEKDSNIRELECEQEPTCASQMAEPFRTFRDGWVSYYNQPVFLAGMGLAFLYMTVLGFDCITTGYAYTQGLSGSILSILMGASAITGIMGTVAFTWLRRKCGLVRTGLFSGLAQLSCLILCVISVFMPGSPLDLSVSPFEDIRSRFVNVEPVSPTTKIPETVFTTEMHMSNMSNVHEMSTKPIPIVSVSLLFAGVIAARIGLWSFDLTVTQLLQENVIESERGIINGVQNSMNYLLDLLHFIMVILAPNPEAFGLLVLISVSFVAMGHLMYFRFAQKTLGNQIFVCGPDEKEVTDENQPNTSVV
Text: This cellular assay allows quantification of the binding of hepcidin to ferroportin (Fpn) through microscopic detection of internalization of a fluorescently labeled hepcidin into J774 cells. […] Binding of hepcidin to Fpn triggers internalization and degradation of both hepcidin and Fpn. However, the TMR (6-carboxytetramethylrhodamine) fluorophore attached to hepcidin remains associated with the cell after degradation of the hepcidin peptide backbone. Therefore, microscopic detection of cell-associated TMR fluorescence is a measure of hepcidin binding to Fpn and internalization of hepcidin and Fpn. If TMR-hepcidin is prevented from binding to Fpn, cellular TMR fluorescence remains low (Dürrenberger et al, 2013). The effect of small molecular weight Fpn inhibitor compounds in this assay was evaluated in vitro as described below.
After overnight incubation, cells were washed 3 times with pre-warmed DMEM w/o phenol red, 30 μl/well of DMEM w/o phenol red was added after the final wash and 10 μl/well of dilution series of test compounds were added in triplicates. […] Cells were incubated in a total volume of 50 μl at 37° C. with 5% CO2 for 2 hours, then Hoechst 33342 dye was added to a final concentration of 0.5 μg/ml to stain nuclei and further incubated for 10 min. at 37° C. with 5% CO2. Cells were washed 3 times with PBS and fixed in 100 μl of 4% paraformaldehyde in PBS for 15 min. at room temperature. After removal of the paraformaldehyde solution, cells were washed 3 times with PBS leaving 100 μl per well and the plates were sealed with foil plate seal. TMR (530-550 nm excitation/575-625 nm emission/400 ms exposure time) and Hoechst 33342 (360-370 nm excitation/420-460 nm emission/10 ms exposure time) fluorescence images were acquired using a ScanR plate imager (Olympus) with a 20× high NA objective. Four pictures were acquired per well and fluorescence channel covering ca. 1500 cells per well. The acquired image data was analysed with the ScanR image analysis software. Image analysis included detection of nuclei (Hoechst 33342 fluorescence), identification of cell-associated regions, application of a virtual channel and thresholding for rolling-ball-type background reduction, followed by application of the Sum(Mean) algorithm to measure the TMR fluorescence associated with cells as a quantitative measure for internalized TMR-hepcidin. IC50 values were calculated with the Sum(Mean) raw data using “log(inhibitor) vs. response” curve fitting of Prism 5 software (GraphPad Software Inc., version 5.02).

[2] = test system: anemic Wistar rats; assay: Prevention of iron absorption in anemic rats; assay type: in vivo, rat; details: 1 h before 0.5 mg/kg ferrous sulfate
Protocol: To assess the in vivo efficacy of ferroportin (Fpn) inhibitors to block iron absorption, a series of Fpn inhibitors were tested in an anemic rat model for iron absorption. Wistar rats (3-4 weeks old, n=5, Janvier Labs) were fed a low iron diet (Provimi-Kliba, Cat. 2039) until their hemoglobin (Hb) values reach 7-8 g/dl one day before dosing of the Fpn inhibitor compounds. One hour before oral application of 0.5 mg/kg of ferrous sulfate, test compounds formulated in methyl cellulose or Cremophor were dosed orally. Blood samples were taken by tail vein puncture one hour before administration of iron (−1 h), immediately after dosing of the Fpn inhibitors (0 h) and one hour (1 h), three hours (3 h) and occasionally up to 6 hours (6 h) after dosing of the test compounds. Serum iron levels were measured (Abbott Diagnostics, Cat. 6K95) and inhibition of the rise of serum iron three hours after dosing of the test compound was calculated as a measure for efficacy of the Fpn inhibitors in blocking iron absorption (Table 7).

[3] = biological target: T1, ferroportin (Fpn); assay: Ferroportin Ubiquitination and Degradation (immunoprecipitation, Western blot, J774 cells); assay type: cell-based; parameters: key: +: comparable to hepcidin; −: no effect; +/−: intermediate effect; details: ca. 10-fold IC50 concentration, visual inspection of Western blots
Protocol: Exposure of cells expressing ferroportin (Fpn) to hepcidin is known to trigger ubiquitination and subsequent internalization and degradation of Fpn (Qiao, 2012). The potential of Fpn inhibitors to induce Fpn ubiquitination and degradation was investigated with an immunoprecipitation assay using the J774 mouse macrophage cell line which expresses Fpn upon treatment with iron.
Cells were incubated with synthetic human hepcidin (Bachem, Cat. H-5926) or Fpn inhibitor compounds for 10 min or 120 min. Cells were washed and lysed with ice-cold lysis buffer (Pierce, Life Technologies, Cat. 87787) including 1×HALT protease inhibitor cocktail (Life technologies, Cat. 78429) and 10 mM iodoacetamide (Sigma, Cat. 16125) to stabilize ubiquitinated proteins. Immunoprecipitation was done using the Pierce Classic IP Kit (Life Technologies, Cat. 26146) following the manufacturer's protocol. Briefly, 2 mg protein in 1.25 ml IP lysis buffer was incubated by mixing for 1 h at 4° C. with control agarose beads to pre-clear the lysate and reduce nonspecific signal. Unbound lysate was then incubated overnight with 12 μg per reaction of the affinity purified anti-Fpn antibody F308 that was raised against a GST fusion protein of mouse Fpn amino acids 224-308. Immune complexes were captured by pipetting 14 μl settled Pierce Protein A/G Plus Agarose beads (Life Technologies, Cat. 20423) per reaction and the slurry was incubated for 1.5 h at 4° C. with gentle end-over-end mixing. The beads were washed and immune complexes were eluted directly with 75 μl SDS NuPAGE LDS sample buffer (Life Technologies, Cat. NP0007) containing DTT (Life Technologies, Cat. NP0009). After immunoprecipitation samples were analyzed by Western blotting using a rabbit anti-mouse MTP1 antiserum (Alpha Diagnostic International, Cat. MTP11-A) and a mouse anti-mono- and polyubiquitinylated conjugates monoclonal antibody (Enzo Lifesciences, Cat. BML-PW8810) for detection of ferroportin and ubiquitin, respectively. Mouse monoclonal anti-rabbit IgG light chain (Abcam, Cat. ab99697) and anti-mouse IgG H&L (Abcam, Cat. ab6789) HRP conjugates were used as secondary antibodies.
A selection of eleven Fpn inhibitors were tested in this assay and compared to hepcidin.
Table 5 Summary of Fpn inhibitors tested in the Fpn ubiquitination and degradation assay.

[4] = test system: naïve WT C57BL/6 mice; assay: Hypoferremia in naïve mice; assay type: in vivo, mouse; details: injection of synthetic hepcidin in WT naïve mice, from the vehicle control, maximal effect at 3-4 hours
Protocol: Female C57BL/6 mice (Janvier, France) at age of 9 weeks were fed a standard diet (Harlan Provimi Kliba 3436) and treated per os (p.o.) with compounds or the corresponding amount of vehicle at a volume of 10 ml/kg body weight. Fpn inhibitors were formulated in 0.5% methylcellulose/water or 20% cremophor EL/water and dosed p.o. in mice at 10, 30 or 100 mg/kg body weight. Three hours later, mice were pre-terminally anesthetized in isoflurane chambers and blood was collected by retro-orbital bleeding. Mice were sacrificed by cervical dislocation and spleens, livers and duodena were harvested and used for biomarker analysis. All experiments have been conducted in compliance with the license approved by the responsible veterinarian authorities. Serum was isolated by centrifugation of blood into gel-containing microtainers and serum iron was determined by the MULTIGENT Iron assay (Abbott Diagnostics, 6K95). Eight mice per group were used and one-way ANOVA with Bonferroni's multiple comparison test was performed to analyze the statistical differences between the experimental groups.
Relative serum iron reduction at 3 h after dosing was calculated by subtracting the average of serum iron values of animals dosed with the Fpn inhibitor from that of vehicle-treated animals. The difference in average serum iron values between vehicle and compound treated groups was then divided by the average of serum iron of the vehicle control group and listed as percentage.

[5] = biological target: T2, human Fpn (Homo sapiens, UniProt Q9NP59); assay: Biophysical Ferroportin-Hepcidin Binding Assay (fluorescence polarization); details: average (AVE) of multiple measurements; TMR-hepcidin binding to purified human Fpn; read-out: FP IC50
T2 construct: FLAG (C); made in house; host or cells: Pichia pastoris
T2 sequence (Q9NP59 1-571): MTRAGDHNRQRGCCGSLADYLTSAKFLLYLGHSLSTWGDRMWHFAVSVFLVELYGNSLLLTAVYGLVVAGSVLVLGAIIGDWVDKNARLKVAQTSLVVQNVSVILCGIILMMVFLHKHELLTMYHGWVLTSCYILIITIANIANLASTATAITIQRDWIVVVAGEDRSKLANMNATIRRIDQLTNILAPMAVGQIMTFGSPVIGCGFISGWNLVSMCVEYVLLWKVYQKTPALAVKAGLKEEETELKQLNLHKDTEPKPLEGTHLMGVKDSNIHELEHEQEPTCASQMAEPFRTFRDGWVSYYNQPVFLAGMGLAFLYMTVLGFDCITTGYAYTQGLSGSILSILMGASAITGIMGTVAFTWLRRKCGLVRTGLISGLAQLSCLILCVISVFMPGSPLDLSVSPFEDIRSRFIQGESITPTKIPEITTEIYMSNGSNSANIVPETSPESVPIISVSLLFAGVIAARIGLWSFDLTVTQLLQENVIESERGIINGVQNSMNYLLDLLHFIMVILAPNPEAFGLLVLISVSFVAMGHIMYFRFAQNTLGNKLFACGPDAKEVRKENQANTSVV
Protocol: This biophysical assay was developed to confirm inhibition of hepcidin binding to ferroportin (Fpn) more directly. Incubation of TMR-hepcidin with purified human Fpn isolated from Pichia pastoris yeast cells expressing human Fpn with a C-terminal FLAG affinity tag (Bonaccorsi di Patti, 2014) leads to increased fluorescence polarization (FP) of the TMR-hepcidin ligand. Small molecular weight Fpn inhibitors were tested for inhibition of binding of TMR-hepcidin to Fpn, as detected by dose-dependent decrease of the TMR FP signal, as described in detail below.
A mixture of […] human Fpn and 30 nM TMR-hepcidin in FP assay buffer containing 50 mM Tris-HCl pH 7.3, 200 mM NaCl, 0.02% DDM, 0.1% BSA was plated into a 384 well black low volume round bottom plate (Corning, Cat. 3677) at 16 μl per well. 8 μl of serial dilutions of test compounds were added in duplicates to reach final Fpn and TMR-hepcidin concentrations of […] and 20 nM, respectively. Plates were incubated for 90 minutes at room temperature and parallel (S) and perpendicular (P) fluorescence was measured in a Synergy H1 fluorescence reader (BioTek). FP values were calculated in mP according to the following formula.

Structure (SMILES)	IC50 [1]	Fpn Degradation (120 min.) [3]	Fpn Ubiquitination (10 min.) [3]	IC50 [5]	other results
Cc1cccnc1CNC(=O)c1csc(CCNCc2nc3ccccc3[nH]2)n1 [Example 55]	0.015 µM	–	–	–	Serum Iron Inhibition (%) at 3 h ([2]; Dose 3 mg/kg oral): 54*** %; Serum Iron Inhibition (%) at 3 h ([2]; Dose 10 mg/kg oral): 72*** %
CC[C@H](C)[C@@H]1NC(=O)[C@@H](NC(=O)[C@@H](NC(=O)[C@@H]2CCCN2C(=O)[C@H](Cc2ccccc2)NC(=O)[C@H](Cc2c[nH]cn2)NC(=O)[C@@H](NC(=O)[C@@H](N)CC(=O)O)[C@@H](C)O)[C@@H](C)CC)CSSC[C@@H](C(=O)N[C@@H](CCCCN)C(=O)N[C@H](C(=O)O)[C@@H](C)O)NC(=O)[C@@H]2CSSC[C@@H]3NC(=O)[C@@H]4CSSC[C@H](NC(=O)[C@H](Cc5ccccc5)NC1=O)C(=O)N[C@@H](CSSC[C@H](NC(=O)[C@H](CCCCN)NC(=O)[C@H](CO)NC(=O)[C@H](CCCNC(=N)N)NC(=O)[C@H](Cc1c[nH]cn1)NC3=O)C(=O)NCC(=O)N[C@@H](CCSC)C(=O)N2)C(=O)NCC(=O)N4 [hepcidin, reference compound]	–	+	+	–	reduction of serum iron levels [4]: 40-50%
O=C(NCc1ccccn1)c1csc2c1CCN(CCc1nc3ccccc3[nH]1)C2 [Example 49]	30.6 µM	–	–	24 µM	–
O=C(NCc1ccccc1F)c1coc(C2CN(CCCc3nc4ccccc4[nH]3)C2)n1 [Example 233]	16 µM	–	–	6.78 µM	–
O=C(NCc1ncccc1F)c1coc(CCNCc2nc3ccccc3[nH]2)n1 [Example 126]	–	+	+/−	–	–
